Our source for the viscosity values is the CheMixHub ionic liquid set.

The series can be described thus: xn = mol fraction of the nth substance listed. The following applies: 100 kPa, x2 = 0.818.

± gives the uncertainty stated by the source.

By viscosity is commonly meant the internal friction of a fluid under shear. The low end stands for a thin fluid, the high end for a thick fluid. Consider `CCCCCCCCCCCCCC[P+](CCCCCC)(CCCCCC)CCCCCC.[Cl-]` + O, for which the viscosity runs as follows: (318.15 K) 50.65 ± 0.37 mPa·s; (323.15 K) 41.05 ± 0.32 mPa·s.
